Reference: ChEMBL document CHEMBL1201862, “PubChem BioAssay data set” (2004)
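Method: 48-hour compound exposure of cells in 96-well plates, five concentrations, linear interpolation of endpoints. GI50 marks 50% less growth.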 Active and inactive are the calls of the source. No stated cut-off is given here; in the data, active = GI50 up to about 1.1 µM and inactive = higher.

What was measured:
Assay in all cases: NCI anticancer screen, dose series, 48 h
[1] = test system: NCI-H226
[2] = test system: HCT-15
[3] = test system: CCRF-CEM
[4] = test system: T47D
[5] = test system: SK-MEL-2
[6] = test system: SK-MEL-5
[7] = test system: A549
[8] = test system: LOX IMVI
[9] = test system: TK-10
[10] = test system: UACC-257
[11] = test system: 786-0
[12] = test system: Malme-3M
[13] = test system: OVCAR-4
[14] = test system: EKVX
[15] = test system: OVCAR-5
[16] = test system: SF-295
[17] = test system: PC-3
[18] = test system: UACC-62
[19] = test system: HT-29
[20] = test system: COLO 205

| Compound | GI50 [1] | GI50 [2] [µM] | GI50 [3] | GI50 [4] | GI50 [5] | GI50 [6] | GI50 [7] | GI50 [8] | GI50 [9] | GI50 [10] | GI50 [11] | GI50 [12] | GI50 [13] | GI50 [14] | GI50 [15] | GI50 [16] | GI50 [17] | GI50 [18] | GI50 [19] | GI50 [20] |
| --- | --- | --- | --- | --- | --- | --- | --- | --- | --- | --- | --- | --- | --- | --- | --- | --- | --- | --- | --- | --- |
| CN(C)CS/C(N)=N\C(O)C(Cl)(Cl)Cl (centres undefined) | > 100 µM (inactive) | > 100 | 51.6 µM (inactive) | > 100 µM (inactive) | > 100 µM (inactive) | > 100 µM (inactive) | > 100 µM (inactive) | > 100 µM (inactive) | > 100 µM (inactive) | > 100 µM (inactive) | > 100 µM (inactive) | > 100 µM (inactive) | > 100 µM (inactive) | > 100 µM (inactive) | > 100 µM (inactive) | > 100 µM (inactive) | > 100 µM (inactive) | > 100 µM (inactive) | > 100 µM (inactive) |  |
| O=C(NCCc1ccc(F)cc1)c1cc(/C=C/c2cc(O)ccc2O)ccc1O | 8.59 µM (inactive) | 2.26 | 1.61 µM (inactive) | 2.24 µM (inactive) | 2.67 µM (inactive) | 2.4 µM (inactive) | 11.1 µM (inactive) | 3.38 µM (inactive) | 2.61 µM (inactive) | 2.41 µM (inactive) | 2.24 µM (inactive) | 2.42 µM (inactive) | 2.67 µM (inactive) | 2.42 µM (inactive) | 6.64 µM (inactive) | 16.1 µM (inactive) | 2.96 µM (inactive) | 2.12 µM (inactive) | 14.4 µM (inactive) | 3.14 µM (inactive) |
| CC(=O)Oc1c2ccsc2c(OC(C)=O)c2ccsc12 | 2.54 µM (inactive) | 0.573 | 0.859 µM (active) | 1.89 µM (inactive) | 0.138 µM (active) | 0.167 µM (active) | 0.224 µM (active) | 0.184 µM (active) | 1.97 µM (inactive) | 0.189 µM (active) | 2.62 µM (inactive) | 0.286 µM (active) | 0.67 µM (active) | 1.5 µM (inactive) | 2.47 µM (inactive) | 1.07 µM (active) | 0.164 µM (active) | 1.59 µM (inactive) | 2.12 µM (inactive) | 1.76 µM (inactive) |
| COC1C(O)CC(OC2C(C)OC(Oc3cc(O)c4c(O)c5c(cc4c3)C[C@@H]([C@H](OC)C(=O)[C@@H](O)[C@@H](C)O)[C@H](OC3CC(OC4CC(OC6CC(C)(O)C(O)C(C)O6)C(O)C(C)O4)C(O)C(C)O3)C5=O)CC2OC(C)=O)OC1C (some centres undefined) | 29 µM (inactive) | > 100 | > 100 µM (inactive) | 66.5 µM (inactive) | 79.3 µM (inactive) | 17.1 µM (inactive) | 63.1 µM (inactive) | 19.5 µM (inactive) | > 100 µM (inactive) |  | > 100 µM (inactive) | 3.47 µM (inactive) | > 100 µM (inactive) | > 100 µM (inactive) | > 100 µM (inactive) | > 10 µM (inactive) | > 100 µM (inactive) | 29.4 µM (inactive) | 65.2 µM (inactive) | 70.8 µM (inactive) |
| CCOC(=O)C1(C/C=C\CBr)CCCC1=O (centres undefined) | 20.8 µM (inactive) | 26.9 |  | 30.5 µM (inactive) | 31.3 µM (inactive) | 26.7 µM (inactive) | 30.6 µM (inactive) | 15.7 µM (inactive) | 13.2 µM (inactive) | 39 µM (inactive) | 32.3 µM (inactive) | 48.1 µM (inactive) | 34.4 µM (inactive) | > 100 µM (inactive) | 31.2 µM (inactive) | 60 µM (inactive) | 36.7 µM (inactive) | 15.7 µM (inactive) | 29.3 µM (inactive) | 37.3 µM (inactive) |
| CCOC(=O)c1c(N2CCCC2)nsc1Nc1ccccc1 | > 100 µM (inactive) | > 100 | > 100 µM (inactive) | > 100 µM (inactive) | > 100 µM (inactive) | > 100 µM (inactive) | > 100 µM (inactive) | > 100 µM (inactive) | > 100 µM (inactive) | > 100 µM (inactive) | > 100 µM (inactive) | > 100 µM (inactive) | > 100 µM (inactive) | > 100 µM (inactive) | 44.6 µM (inactive) | > 100 µM (inactive) | > 100 µM (inactive) |  | > 100 µM (inactive) | > 100 µM (inactive) |
| Brc1ccc2nc(-c3cccs3)nc(N3CCN(c4ccccc4)CC3)c2c1 | > 100 µM (inactive) | > 100 |  | > 100 µM (inactive) | > 100 µM (inactive) | > 100 µM (inactive) | > 100 µM (inactive) | > 100 µM (inactive) | > 100 µM (inactive) | > 100 µM (inactive) | > 100 µM (inactive) | > 100 µM (inactive) | > 100 µM (inactive) | > 100 µM (inactive) | > 100 µM (inactive) | > 100 µM (inactive) | > 100 µM (inactive) | > 100 µM (inactive) | > 100 µM (inactive) | > 100 µM (inactive) |
| C[C@]12CC[C@H](O)CC1=CC[C@@H]1[C@@H]2CC[C@]2(C)C(=O)/C(=C/c3ccc([N+](=O)[O-])cc3)C[C@@H]12 | 2.96 µM (inactive) | 28.8 | > 100 µM (inactive) | 14.3 µM (inactive) | 17.7 µM (inactive) | 16.3 µM (inactive) | 13.3 µM (inactive) | 10 µM (inactive) |  | 21.1 µM (inactive) | 3.43 µM (inactive) | 20.1 µM (inactive) | 8 µM (inactive) | 8.91 µM (inactive) | 19.2 µM (inactive) | 6.65 µM (inactive) | 10.4 µM (inactive) | 65 µM (inactive) | 25.5 µM (inactive) |  |
| O=c1[nH]nc(Cc2ccc(Cl)cc2)n1/N=C\CC/C=N\n1c(Cc2ccc(Cl)cc2)n[nH]c1=O | 18.4 µM (inactive) | 35.2 |  | 20 µM (inactive) | 29.8 µM (inactive) | 47.3 µM (inactive) | > 100 µM (inactive) | 13.6 µM (inactive) | > 100 µM (inactive) | 50.9 µM (inactive) | 18.5 µM (inactive) | 24.3 µM (inactive) | > 81.3 µM (inactive) | 21.3 µM (inactive) | > 100 µM (inactive) | 24.4 µM (inactive) | > 51.9 µM (inactive) | 10.9 µM (inactive) | > 26.2 µM (inactive) | > 100 µM (inactive) |
| N#Cc1c(-c2ccccc2)c(C#N)c(=S)n(C2OC(CO)C(O)C(O)C2O)c1O (centres undefined) | > 100 µM (inactive) | > 100 | > 100 µM (inactive) | > 100 µM (inactive) | > 100 µM (inactive) | > 100 µM (inactive) | > 100 µM (inactive) | > 100 µM (inactive) | > 100 µM (inactive) | > 100 µM (inactive) | > 100 µM (inactive) | > 100 µM (inactive) |  |  | > 100 µM (inactive) | > 100 µM (inactive) | > 100 µM (inactive) | > 100 µM (inactive) | > 100 µM (inactive) |  |
| CC(=N\N)/C(C)=N/N=C(C)/C(C)=N/N=C(C)/C(C)=N/N=C(C)/C(C)=N/N | > 100 µM (inactive) | > 100 | > 100 µM (inactive) | > 100 µM (inactive) | > 100 µM (inactive) | > 100 µM (inactive) | > 100 µM (inactive) | > 100 µM (inactive) | > 100 µM (inactive) | > 100 µM (inactive) | > 100 µM (inactive) | > 100 µM (inactive) | > 100 µM (inactive) | > 100 µM (inactive) | > 100 µM (inactive) | > 100 µM (inactive) | > 100 µM (inactive) |  | > 100 µM (inactive) | > 100 µM (inactive) |
| COc1cccc2cc(C(N)=O)c(=N)oc12 | 96.2 µM (inactive) | 52.6 | 40.6 µM (inactive) | 37.3 µM (inactive) | 22.9 µM (inactive) | 49.2 µM (inactive) | 50.5 µM (inactive) | 30.7 µM (inactive) |  | > 100 µM (inactive) | 31.7 µM (inactive) | 19.2 µM (inactive) | 53.5 µM (inactive) | 29.2 µM (inactive) | 51.3 µM (inactive) |  | 65.3 µM (inactive) | 31.3 µM (inactive) | 48.4 µM (inactive) | 49.4 µM (inactive) |
| Cc1cc(S(=O)(=O)Nc2nc(N)nc(N(C)C)n2)c(SC(C(=O)O)c2ccccc2)cc1Cl (centres undefined) | > 10 µM (inactive) | > 10 | > 10 µM (inactive) | > 10 µM (inactive) | > 10 µM (inactive) | > 10 µM (inactive) | > 10 µM (inactive) | > 10 µM (inactive) | > 10 µM (inactive) | > 10 µM (inactive) | > 10 µM (inactive) | > 10 µM (inactive) | > 10 µM (inactive) | > 10 µM (inactive) | > 10 µM (inactive) | > 10 µM (inactive) | > 10 µM (inactive) |  | > 10 µM (inactive) | > 10 µM (inactive) |
| COC1=CC(=O)c2c(cc(COP(=O)(OCC3OC(n4cc(F)c(=O)[nH]c4=O)CC3O)N(C)CCCCCl)n2C)C1=O (centres undefined) | 0.546 µM (active) | 7.55 | < 0.01 µM (active) | 0.991 µM (active) | 17.7 µM (inactive) | 0.0329 µM (active) | < 0.01 µM (active) | 0.0148 µM (active) | 1.81 µM (inactive) | 18.5 µM (inactive) | 0.186 µM (active) | 2.42 µM (inactive) | 1.82 µM (inactive) | 3.86 µM (inactive) | 7.45 µM (inactive) | < 0.0132 µM (active) | 0.173 µM (active) | 0.0736 µM (active) | 0.233 µM (active) |  |
